Experimental data as given in publication PMC11277489, “Novel Piperazine Derivatives of Vindoline as Anticancer Agents” (International Journal of Molecular Sciences, 2024).

The compounds below were run on HOP-62 (assay: NCI60 five-dose screen, Non-small Cell Lung Cancer). Settings: Homo sapiens; HOP-62, Non-small Cell Lung Cancer; five-dose screen; read-out: GI50.
Assay type: cell-based

`CC[C@]12C=CCN3CC[C@@]4(c5ccc(OC)cc5N(C)[C@H]4[C@@](O)(C(=O)OC)[C@@H]1OC(=O)CCC(=O)N1CCN(c4ccc(C(F)(F)F)cc4)CC1)[C@@H]32` [Compound 28] was tested. Which GI50 did it give?
Its GI50 is 5.5 µM.

The compounds below were run on HOP-92 (assay: NCI60 five-dose screen, Non-small Cell Lung Cancer). Settings: Homo sapiens; HOP-92, Non-small Cell Lung Cancer; five-dose screen; read-out: GI50.
Assay type: cell-based

Which GI50 does the source give for `CC[C@]12C=CCN3CC[C@@]4(c5ccc(OC)cc5N(C)[C@H]4[C@@](O)(C(=O)OC)[C@@H]1OC(=O)CCC(=O)N1CCN(c4ccc(C(F)(F)F)cc4)CC1)[C@@H]32` [Compound 28] here?
Its GI50 is 2.09 µM.

These compounds were tested on NCI-H522 (assay: NCI60 five-dose screen, Non-small Cell Lung Cancer). Settings: Homo sapiens; NCI-H522, Non-small Cell Lung Cancer; five-dose screen; read-out: GI50.
Assay type: cell-based

For `CC[C@]12C=CCN3CC[C@@]4(c5ccc(OC)cc5N(C)[C@H]4[C@@](O)(C(=O)OC)[C@@H]1OC(=O)CCC(=O)N1CCN(c4ccc(C(F)(F)F)cc4)CC1)[C@@H]32` [Compound 28], which GI50 is on record?
The GI50 was 3.24 µM.

Each compound was assayed on UACC-257 (assay: NCI60 five-dose screen, Melanoma). Settings: Homo sapiens; UACC-257, Melanoma; five-dose screen; read-out: GI50.
Assay type: cell-based

With `CC[C@]12C=CCN3CC[C@@]4(c5ccc(OC)cc5N(C)[C@H]4[C@@](O)(C(=O)OC)[C@@H]1OC(=O)CCC(=O)N1CCN(c4ccc(C(F)(F)F)cc4)CC1)[C@@H]32` [Compound 28] as the compound, how does the GI50 read?
The GI50 was 3.89 µM.

Each compound was assayed on MOLT-4 (assay: NCI60 five-dose screen, Leukemia). Settings: Homo sapiens; MOLT-4, Leukemia; five-dose screen; read-out: GI50.
Assay type: cell-based

`CC[C@]12C=CCN3CC[C@@]4(c5ccc(OC)cc5N(C)[C@H]4[C@@](O)(C(=O)OC)[C@@H]1OC(=O)CCC(=O)N1CCN(c4ccc(C(F)(F)F)cc4)CC1)[C@@H]32` [Compound 28] was tested. Which GI50 did it give?
Its GI50 is 1.17 µM.

What follows are compounds tested on CAKI-1 (assay: NCI60 five-dose screen, Renal Cancer). Settings: Homo sapiens; CAKI-1, Renal Cancer; five-dose screen; read-out: GI50.
Assay type: cell-based

With `CC[C@]12C=CCN3CC[C@@]4(c5ccc(OC)cc5N(C)[C@H]4[C@@](O)(C(=O)OC)[C@@H]1OC(=O)CCC(=O)N1CCN(c4ccc(C(F)(F)F)cc4)CC1)[C@@H]32` [Compound 28] as the compound, how does the GI50 read?
The GI50 was 2 µM.

These compounds were tested on MCF7 (assay: NCI60 five-dose screen, Breast Cancer). Settings: Homo sapiens; MCF7, Breast Cancer; five-dose screen; read-out: GI50.
Assay type: cell-based

How did the GI50 turn out when `CC[C@]12C=CCN3CC[C@@]4(c5ccc(OC)cc5N(C)[C@H]4[C@@](O)(C(=O)OC)[C@@H]1OC(=O)CCC(=O)N1CCN(c4ccc(C(F)(F)F)cc4)CC1)[C@@H]32` [Compound 28] was run?
Its GI50 is 2.95 µM.

Each compound was assayed on HT29 (assay: NCI60 five-dose screen, Colon Cancer). Settings: Homo sapiens, HT-29; HT29, Colon Cancer; five-dose screen; read-out: GI50.
Assay type: cell-based

For `CC[C@]12C=CCN3CC[C@@]4(c5ccc(OC)cc5N(C)[C@H]4[C@@](O)(C(=O)OC)[C@@H]1OC(=O)CCC(=O)N1CCN(c4ccc(C(F)(F)F)cc4)CC1)[C@@H]32` [Compound 28], which GI50 is on record?
The GI50 was 2.57 µM.

These compounds were tested on RXF 393 (assay: NCI60 five-dose screen, Renal Cancer). Settings: Homo sapiens, RXF 393, Renal Cancer.
Assay type: cell-based

Which GI50 does the source give for `CC[C@]12C=CCN3CC[C@@]4(c5ccc(OC)cc5N(C)[C@H]4[C@@](O)(C(=O)OC)[C@@H]1OC(=O)CCC(=O)N1CCN(c4ccc(C(F)(F)F)cc4)CC1)[C@@H]32` [Compound 28] here?
Its GI50 is 2.29 µM.

Each compound was assayed on SNB-75 (assay: NCI60 five-dose screen, CNS Cancer). Settings: Homo sapiens; SNB-75, CNS Cancer; five-dose screen; read-out: GI50.
Assay type: cell-based

Which GI50 does the source give for `CC[C@]12C=CCN3CC[C@@]4(c5ccc(OC)cc5N(C)[C@H]4[C@@](O)(C(=O)OC)[C@@H]1OC(=O)CCC(=O)N1CCN(c4ccc(C(F)(F)F)cc4)CC1)[C@@H]32` [Compound 28] here?
The GI50 was 2 µM.

The compounds below were run on KM12 (assay: NCI60 five-dose screen, Colon Cancer). Settings: Homo sapiens; KM12, Colon Cancer; five-dose screen; read-out: GI50.
Assay type: cell-based

Which GI50 does the source give for `CC[C@]12C=CCN3CC[C@@]4(c5ccc(OC)cc5N(C)[C@H]4[C@@](O)(C(=O)OC)[C@@H]1OC(=O)CCC(=O)N1CCN(c4ccc(C(F)(F)F)cc4)CC1)[C@@H]32` [Compound 28] here?
The GI50 was 4.79 µM.

Each compound was assayed on SK-MEL-28 (assay: NCI60 five-dose screen, Melanoma). Settings: Homo sapiens; SK-MEL-28, Melanoma; five-dose screen; read-out: GI50.
Assay type: cell-based

For `CC[C@]12C=CCN3CC[C@@]4(c5ccc(OC)cc5N(C)[C@H]4[C@@](O)(C(=O)OC)[C@@H]1OC(=O)CCC(=O)N1CCN(c4ccc(C(F)(F)F)cc4)CC1)[C@@H]32` [Compound 28], which GI50 is on record?
The GI50 was 5.01 µM.

Each compound was assayed on NCI-H322M (assay: NCI60 five-dose screen, Non-small Cell Lung Cancer). Settings: Homo sapiens, Non-small Cell Lung Cancer, five-dose screen, read-out: GI50.
Assay type: cell-based

With `CC[C@]12C=CCN3CC[C@@]4(c5ccc(OC)cc5N(C)[C@H]4[C@@](O)(C(=O)OC)[C@@H]1OC(=O)CCC(=O)N1CCN(c4ccc(C(F)(F)F)cc4)CC1)[C@@H]32` [Compound 28] as the compound, how does the GI50 read?
The GI50 was 10 µM.

What follows are compounds tested on SK-MEL-2 (assay: NCI60 five-dose screen, Melanoma). Settings: Homo sapiens; SK-MEL-2, Melanoma; five-dose screen; read-out: GI50.
Assay type: cell-based

`CC[C@]12C=CCN3CC[C@@]4(c5ccc(OC)cc5N(C)[C@H]4[C@@](O)(C(=O)OC)[C@@H]1OC(=O)CCC(=O)N1CCN(c4ccc(C(F)(F)F)cc4)CC1)[C@@H]32` [Compound 28] was tested. Which GI50 did it give?
Its GI50 is 2.75 µM.

Each compound was assayed on EKVX (assay: NCI60 five-dose screen, Non-small Cell Lung Cancer). Settings: Homo sapiens, Non-small Cell Lung Cancer, five-dose screen, read-out: GI50.
Assay type: cell-based

For `CC[C@]12C=CCN3CC[C@@]4(c5ccc(OC)cc5N(C)[C@H]4[C@@](O)(C(=O)OC)[C@@H]1OC(=O)CCC(=O)N1CCN(c4ccc(C(F)(F)F)cc4)CC1)[C@@H]32` [Compound 28], which GI50 is on record?
Its GI50 is 3.63 µM.

The compounds below were run on OVCAR-8 (assay: NCI60 five-dose screen, Ovarian Cancer). Settings: Homo sapiens; OVCAR-8, Ovarian Cancer; five-dose screen; read-out: GI50.
Assay type: cell-based

For `CC[C@]12C=CCN3CC[C@@]4(c5ccc(OC)cc5N(C)[C@H]4[C@@](O)(C(=O)OC)[C@@H]1OC(=O)CCC(=O)N1CCN(c4ccc(C(F)(F)F)cc4)CC1)[C@@H]32` [Compound 28], which GI50 is on record?
Its GI50 is 3.72 µM.

The compounds below were run on RPMI-8226 (assay: NCI60 five-dose screen, Leukemia). Settings: Homo sapiens; RPMI-8226, Leukemia; five-dose screen; read-out: GI50.
Assay type: cell-based

Which GI50 does the source give for `CC[C@]12C=CCN3CC[C@@]4(c5ccc(OC)cc5N(C)[C@H]4[C@@](O)(C(=O)OC)[C@@H]1OC(=O)CCC(=O)N1CCN(c4ccc(C(F)(F)F)cc4)CC1)[C@@H]32` [Compound 28] here?
Its GI50 is 2.57 µM.

The compounds below were run on CCRF-CEM (assay: NCI60 five-dose screen, Leukemia). Settings: Homo sapiens, Leukemia, five-dose screen, read-out: GI50.
Assay type: cell-based

For `CC[C@]12C=CCN3CC[C@@]4(c5ccc(OC)cc5N(C)[C@H]4[C@@](O)(C(=O)OC)[C@@H]1OC(=O)CCC(=O)N1CCN(c4ccc(C(F)(F)F)cc4)CC1)[C@@H]32` [Compound 28], which GI50 is on record?
Its GI50 is 1.66 µM.

Each compound was assayed on SF-539 (assay: NCI60 five-dose screen, CNS Cancer). Settings: Homo sapiens; SF-539, CNS Cancer; five-dose screen; read-out: GI50.
Assay type: cell-based

Which GI50 does the source give for `CC[C@]12C=CCN3CC[C@@]4(c5ccc(OC)cc5N(C)[C@H]4[C@@](O)(C(=O)OC)[C@@H]1OC(=O)CCC(=O)N1CCN(c4ccc(C(F)(F)F)cc4)CC1)[C@@H]32` [Compound 28] here?
Its GI50 is 5.25 µM.

These compounds were tested on SNB-19 (assay: NCI60 five-dose screen, CNS Cancer). Settings: Homo sapiens; SNB-19, CNS Cancer; five-dose screen; read-out: GI50.
Assay type: cell-based

With `CC[C@]12C=CCN3CC[C@@]4(c5ccc(OC)cc5N(C)[C@H]4[C@@](O)(C(=O)OC)[C@@H]1OC(=O)CCC(=O)N1CCN(c4ccc(C(F)(F)F)cc4)CC1)[C@@H]32` [Compound 28] as the compound, how does the GI50 read?
The GI50 was 4.37 µM.

The compounds below were run on NCI-H226 (assay: NCI60 five-dose screen, Non-small Cell Lung Cancer). Settings: Homo sapiens; NCI-H226, Non-small Cell Lung Cancer; five-dose screen; read-out: GI50.
Assay type: cell-based

For `CC[C@]12C=CCN3CC[C@@]4(c5ccc(OC)cc5N(C)[C@H]4[C@@](O)(C(=O)OC)[C@@H]1OC(=O)CCC(=O)N1CCN(c4ccc(C(F)(F)F)cc4)CC1)[C@@H]32` [Compound 28], which GI50 is on record?
Its GI50 is 3.16 µM.

Each compound was assayed on SN12C (assay: NCI60 five-dose screen, Renal Cancer). Settings: Homo sapiens, Renal Cancer, five-dose screen, read-out: GI50.
Assay type: cell-based

Which GI50 does the source give for `CC[C@]12C=CCN3CC[C@@]4(c5ccc(OC)cc5N(C)[C@H]4[C@@](O)(C(=O)OC)[C@@H]1OC(=O)CCC(=O)N1CCN(c4ccc(C(F)(F)F)cc4)CC1)[C@@H]32` [Compound 28] here?
Its GI50 is 4.17 µM.
